Columns and labels:
[1] = molecular target: T1, plasma dipeptidylpeptidase IV (Mus musculus, UniProt P28843); test: Inhibition of plasma dipeptidylpeptidase IV activity in mice by oral administration; type: in vivo; conditions: male ICR mice, 0.1 mg/mL at 10 mL/kg, plasma 30 minutes after administration vs before
T1 construct: The blood samples were centrifuged at 6000 rpm for 2 minutes to separate plasma; tissue Charles River Laboratories Japan; host or cells: plasma of male ICR mice
Experimental: Each compound was suspended in 0.3% sodium carboxymethylcellulose to a concentration of 0.1 mg/mL. The preparation was orally administered to 8-week old male ICR mice (Charles River Laboratories Japan) at a dose of 10 mL/kg. Using an EDTA 2K-treated capillary tube, blood samples were collected from the tail vein before administration and 30 minutes after administration. The blood samples were centrifuged at 6000 rpm for 2 minutes to separate plasma. […] The inhibition was determined from the decrease in the enzymatic activity from the initial activity (% inhibition={(activity before administration−activity after administration)/(activity before administration)}×100).

[2] = molecular target: plasma dipeptidylpeptidase IV (UniProt P27487); test: In vitro dipeptidylpeptidase IV inhibition (H-Gly-Pro-AMC hydrolysis, fluorometry); type: biochemical; conditions: plasma diluted 8-fold, H-Gly-Pro-AMC.HBr substrate, room temperature 20 minutes
Experimental: The concentration of free 7-amino-4-methyl-coumarin (AMC) generated by hydrolysis of H-Gly-Pro-AMC.HBr substrate by plasma dipeptidylpeptidase IV was determined by fluorometry.
A 20 μL of buffer (25 mmol/L hepes, 140 mmol/L sodium chloride, 1% bovine serum albumin, 80 mmol/L magnesium chloride hexahydrate, pH 7.4) containing each compound was added to 20 μL of plasma diluted 8-fold with saline in a well of a 96-well flat bottom plate. The plate was left at room temperature for 5 minutes and 10 μL of 0.1 mmol/L H-Gly-Pro-AMC.HBr solution was added to each well to initiate the reaction. […] Using a fluorescent plate reader, the free AMC concentration was determined by exciting the samples at 355 nm and measuring the fluorescence intensity at 460 nm.

T1 sequence (P28843 37-760 limits assumed): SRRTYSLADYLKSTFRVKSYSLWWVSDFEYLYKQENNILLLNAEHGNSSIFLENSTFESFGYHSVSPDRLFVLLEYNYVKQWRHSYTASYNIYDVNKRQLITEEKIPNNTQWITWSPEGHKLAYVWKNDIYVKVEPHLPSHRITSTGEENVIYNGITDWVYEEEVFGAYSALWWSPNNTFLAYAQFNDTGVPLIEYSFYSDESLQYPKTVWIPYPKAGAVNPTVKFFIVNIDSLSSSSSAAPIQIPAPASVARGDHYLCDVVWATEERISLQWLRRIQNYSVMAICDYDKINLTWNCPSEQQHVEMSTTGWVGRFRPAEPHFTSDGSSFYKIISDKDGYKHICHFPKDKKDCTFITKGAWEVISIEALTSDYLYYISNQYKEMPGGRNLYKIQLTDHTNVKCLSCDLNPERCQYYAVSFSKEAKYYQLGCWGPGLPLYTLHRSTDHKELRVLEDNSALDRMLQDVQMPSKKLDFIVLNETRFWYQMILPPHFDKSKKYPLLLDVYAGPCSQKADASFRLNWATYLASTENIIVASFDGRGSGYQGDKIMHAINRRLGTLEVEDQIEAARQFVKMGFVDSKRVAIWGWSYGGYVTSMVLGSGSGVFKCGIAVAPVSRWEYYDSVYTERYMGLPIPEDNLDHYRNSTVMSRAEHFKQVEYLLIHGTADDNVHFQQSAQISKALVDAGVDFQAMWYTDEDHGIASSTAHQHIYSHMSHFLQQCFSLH

| Compound | inhibition at 100 µg/mL (stock) [1] [%] | IC50 [2] [nM] |
| --- | --- | --- |
| N#C[C@@H]1C[C@H](F)CN1C(=O)CNC12CCC(C(=O)N3CCC3)(CC1)CC2 [Example 15, (2S,4S)-1-[[[4-(azetidin-1-yl)carbonylbicyclo[2.2.2]oct-1-yl]amino]acetyl]-4-fluoropyrrolidine-2-carbonitrile] | 66 |  |
| CN(C)C(=O)C12CCC(NCC(=O)N3C[C@@H](F)C[C@H]3C#N)(CC1)CC2 [Example 9, (2S,4S)-1-[[N-[4-(dimethylamino)carbonylbicyclo[2.2.2]oct-1-yl]amino]acetyl]-4-fluoropyrrolidine-2-carbonitrile] | 87 |  |
| N#C[C@@H]1C[C@H](F)CN1C(=O)CNC12CCC(C(=O)N3CC[C@@H](F)C3)(CC1)CC2 [Example 16, (2S,4S,3′ R)-4-fluoro-1-[[N-[4-(3-fluoropyrrolidin-1-yl)carbonylbicyclo[2.2.2]oct-1-yl]amino]acetyl]pyrrolidine-2-carbonitrile] |  | 0.082 |
| C=CCNC(=O)C12CCC(NCC(=O)N3C[C@@H](F)C[C@H]3C#N)(CC1)CC2 [Example 52, (2S,4S)-4-fluoro-1-[[N-[4-[N-(2-propenyl)amino]carbonylbicyclo[2.2.2]oct-1-yl]amino]acetyl]pyrrolidine-2-carbonitrile] | 70 | 0.057 |
| CN1CCN(C(=O)C23CCC(NCC(=O)N4C[C@@H](F)C[C@H]4C#N)(CC2)CC3)CC1 [Example 8, (2S,4S)-4-fluoro-1-[[N-[4-(4-methylpiperazin-1-yl)carbonylbicyclo[2.2.2]oct-1-yl]amino]acetyl]pyrrolidine-2-carbonitrile] |  | 0.83 |
| N#C[C@@H]1C[C@H](F)CN1C(=O)CNC12CCC(C(N)=O)(CC1)CC2 [Example 1, (2S,4S)-1-[[(4-carbamoylbicyclo[2.2.2]oct-1-yl)amino]acetyl]-4-fluoropyrrolidine-2-carbonitrile] | 71 | 0.89 |
| CC(C)(C)NC(=O)C12CCC(NCC(=O)N3C[C@@H](F)C[C@H]3C#N)(CC1)CC2 [Example 30, (2S,4S)-1-[[N-[4-(N-2,2-dimethylethylamino)carbonylbicyclo[2.2.2]oct-1-yl]amino]acetyl]-4-fluoropyrrolidine-2-carbonitrile] | 77 |  |
